Data: ChEMBL document CHEMBL1124566, “N-(phthalimidoalkyl) derivatives of serotonergic agents: a common interaction at 5-HT1A serotonin binding sites?” (J Med Chem, 1989)

Columns and labels:
[1] = target: T1, 5-hydroxytryptamine receptor 1A (Rattus norvegicus, UniProt P19327); format: cell membranes, Membrane
T1 sequence (P19327 whole entry): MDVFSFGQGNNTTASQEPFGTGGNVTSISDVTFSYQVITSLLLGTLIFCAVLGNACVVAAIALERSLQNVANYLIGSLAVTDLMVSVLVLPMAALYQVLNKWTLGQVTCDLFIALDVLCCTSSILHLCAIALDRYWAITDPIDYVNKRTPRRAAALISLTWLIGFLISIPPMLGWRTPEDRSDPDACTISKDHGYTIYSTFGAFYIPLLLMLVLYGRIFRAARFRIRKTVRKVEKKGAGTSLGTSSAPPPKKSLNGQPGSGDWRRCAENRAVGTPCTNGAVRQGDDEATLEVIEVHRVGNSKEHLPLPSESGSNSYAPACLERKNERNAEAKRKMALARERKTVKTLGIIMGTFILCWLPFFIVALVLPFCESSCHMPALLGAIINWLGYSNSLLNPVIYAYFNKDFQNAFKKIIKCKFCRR
Description: Binding affinity of compound towards 5-hydroxytryptamine 1A receptor in rat striatal membranes by [3H]OH-DPAT displacement.

[2] = target: T1, 5-hydroxytryptamine receptor 1A; assay: Binding affinity of compound towards 5-HT 1A receptor by measuring ability to displace [3H]OH-DPAT from 5-hydroxytryptamine 1A receptor in rat hippocampal membranes
[3] = target: T1, 5-hydroxytryptamine receptor 1A; assay: as above; remark: listed apart in the source

Structure (SMILES) | Ki [1] [nM] | other results
COc1ccccc1CCCNCCCCN1C(=O)c2ccccc2C1=O | 110 | –
COc1ccccc1CCCN(C)C | 3200 | –
COc1ccccc1N1CCN(CCCCCN2C(=O)c3ccccc3C2=O)CC1 | – | Ki [2]: 5 nM
COc1ccccc1CCCN(C)CCCCN1C(=O)c2ccccc2C1=O | 170 | –
COc1cccc2c1CC(NCCN1C(=O)c3ccccc3C1=O)CC2 (stereo not given) | 250 | –
COc1ccc2cccc(N3CCNCC3)c2c1 | 3.3 | –
O=C1c2ccccc2C(=O)N1CCCCNCCCOc1cccc2ccccc12 | 25 | –
COc1ccc2[nH]cc(CCNCCCCN3C(=O)c4ccccc4C3=O)c2c1 | 20 | –
CN(CCCCN1C(=O)c2ccccc2C1=O)CCc1ccccc1 | 300 | –
COc1ccc2[nH]cc(CCN(C)C)c2c1 [MEBUFOTENIN] | 10 | –
CN(C)CCc1ccccc1 | – | Ki [2]: 850 nM
COc1ccc2ccccc2c1N1CCNCC1 | 34 | –
O=C1c2ccccc2C(=O)N1CCCNCCCOc1cccc2ccccc12 | – | Ki [2]: 45 nM
COc1cccc2c1CC(NCCCN1C(=O)c3ccccc3C1=O)CC2 (stereo not given) | 48 | –
O=C1c2ccccc2C(=O)N1CCNCCCOc1cccc2ccccc12 | – | Ki [3]: 1330 nM
